Test results reported in patent US11111235B2 (Denali Therapeutics Inc., priority 2016, dated 2021).
pIC50: −log10 of the molar value.

Columns and labels:
[1] = target: LRRK2 G2019S (Homo sapiens (Human), UniProt Q5S007, G2019S); experiment: LRRK2 G2019S TR-FRET biochemical assay (LRRKtide substrate); details: 134 μM ATP
Experimental: Materials: • LRRK2 G2019S enzyme • Substrate (LRRKtide) • ATP • TR-FRET dilution buffer • pLRRKtide antibody • 384-well assay plate • DMSO
Enzyme Reaction Conditions • 50 mM Tris pH 7.5, 10 mM MgCl2, 1 mM EGTA, 0.01% Brij-35.2 mM DTT • 5 nM LRRK2 • 134 μM ATP • 60 minute reaction time • 23° C. reaction temperature • 10 μL total reaction volume
Detection Reaction Conditions • 1× TR-FRET dilution buffer • 10 mM EDTA • 2 nM antibody • 23° C. reaction temperature • 10 μL total reaction volume
Compounds were prepared by initially diluting to 1 mM with DMSO. 35 μL of reference compound solution, 35 μL of test compound solution, and 35 μL HPE were successively added to the source plate (384-well assay plate, Labcyte). The plates were centrifuged at 2500 rpm for 1 minute and sealed in foil. POD was used to perform a 3.162 fold serial dilution and 100 nL of reference compound solution, test compound solution, HPE and ZPE were transferred to assay plates. The assay plate was centrifuged at 2500 rpm for 1 minute, and sealed with foil.
To perform the enzyme reaction, 5 μL of LRRKtide substrate and kinase mixture in assay buffer was added to all wells of the assay plate. The plate was centrifuged to concentrate the mixture at the bottom of the wells. The assay plate was incubated at 23° C. for 20 minutes. Following incubation, 5 μL of 2×ATP in assay buffer was added to each well, and plates were centrifuged to concentrate the mixture at the bottom of the wells. The plate was incubated at 23° C. for 60 minutes.
To perform the detection of the reaction, EDTA completely mixed in TR-FRET dilution buffer was added to antibody reagent. 10 μL of detection reagent was added to all wells of each well of the assay plate and the plate was centrifuged to concentrate the mixture at the bottom of the wells. The plate was then incubated at 23° C. for 60 minutes. Plates were read on Perkin Elmer Envision 2104 instrument in TR-FRET mode using 340 nm excitation filter, 520 nm fluorescence emission filter, and 490 or 495 nm terbium emission filter.

[2] = Metabolic stability in human liver microsomes; format: in vitro ADME; details: projected human hepatic clearance scaled from microsomal Clint, well-stirred model
Experimental: Metabolic stability of compounds was evaluated in human liver microsomes (from Corning or XenoTech, LLC) using a 96-well plate assay format. Compounds were incubated at 37° C. at […] final concentration in the microsomal matrix (0.5 mg/mL total protein) in the presence or absence of NADPH cofactor. An NADPH regenerating system, comprised of NADP, MgCl2, isocitric acid, and isocitrate dehydrogenase, was used in the assay. Enzymatic reactions were conducted for 0, 5, 10, 20, 30, or 60 min before termination by addition of acetonitrile containing tolbutamide and labetalol internal standards (100 ng/mL). After shaking for 10 min, plates were subjected to centrifugation (4000 rpm at 4° C.) for 20 min and supernatants were mixed 1:3 with HPLC grade water. Samples were analyzed by LC-MS/MS using appropriate MRM transitions for each analyte and internal standard (IS). Analyte/IS peak area ratios were used to determine percent compound remaining at each time point. Intrinsic clearance (Clint; expressed as mL·min^−1·mg^−1) was calculated from the first order elimination constant (k, min^−1) of test article decay and the volume of the incubation. These values were scaled to intrinsic organ clearance (Clint) using human specific scaling factors (48.8 mg microsomal protein per g liver; 25.7 g liver per kg body weight). Organ Clint was subsequently converted to hepatic clearance (CLhep, mL·min-1·kg-1) using the well-stirred model of hepatic elimination, where Qh is human hepatic blood flow (20.7 mL·min-1·kg-1).
CLhep is the projected human clearance in the liver based on the above in vitro assay. A lower value is indicative of less compound being removed by the liver.

Sequence of LRRK2 G2019S (Q5S007 whole entry G2019S): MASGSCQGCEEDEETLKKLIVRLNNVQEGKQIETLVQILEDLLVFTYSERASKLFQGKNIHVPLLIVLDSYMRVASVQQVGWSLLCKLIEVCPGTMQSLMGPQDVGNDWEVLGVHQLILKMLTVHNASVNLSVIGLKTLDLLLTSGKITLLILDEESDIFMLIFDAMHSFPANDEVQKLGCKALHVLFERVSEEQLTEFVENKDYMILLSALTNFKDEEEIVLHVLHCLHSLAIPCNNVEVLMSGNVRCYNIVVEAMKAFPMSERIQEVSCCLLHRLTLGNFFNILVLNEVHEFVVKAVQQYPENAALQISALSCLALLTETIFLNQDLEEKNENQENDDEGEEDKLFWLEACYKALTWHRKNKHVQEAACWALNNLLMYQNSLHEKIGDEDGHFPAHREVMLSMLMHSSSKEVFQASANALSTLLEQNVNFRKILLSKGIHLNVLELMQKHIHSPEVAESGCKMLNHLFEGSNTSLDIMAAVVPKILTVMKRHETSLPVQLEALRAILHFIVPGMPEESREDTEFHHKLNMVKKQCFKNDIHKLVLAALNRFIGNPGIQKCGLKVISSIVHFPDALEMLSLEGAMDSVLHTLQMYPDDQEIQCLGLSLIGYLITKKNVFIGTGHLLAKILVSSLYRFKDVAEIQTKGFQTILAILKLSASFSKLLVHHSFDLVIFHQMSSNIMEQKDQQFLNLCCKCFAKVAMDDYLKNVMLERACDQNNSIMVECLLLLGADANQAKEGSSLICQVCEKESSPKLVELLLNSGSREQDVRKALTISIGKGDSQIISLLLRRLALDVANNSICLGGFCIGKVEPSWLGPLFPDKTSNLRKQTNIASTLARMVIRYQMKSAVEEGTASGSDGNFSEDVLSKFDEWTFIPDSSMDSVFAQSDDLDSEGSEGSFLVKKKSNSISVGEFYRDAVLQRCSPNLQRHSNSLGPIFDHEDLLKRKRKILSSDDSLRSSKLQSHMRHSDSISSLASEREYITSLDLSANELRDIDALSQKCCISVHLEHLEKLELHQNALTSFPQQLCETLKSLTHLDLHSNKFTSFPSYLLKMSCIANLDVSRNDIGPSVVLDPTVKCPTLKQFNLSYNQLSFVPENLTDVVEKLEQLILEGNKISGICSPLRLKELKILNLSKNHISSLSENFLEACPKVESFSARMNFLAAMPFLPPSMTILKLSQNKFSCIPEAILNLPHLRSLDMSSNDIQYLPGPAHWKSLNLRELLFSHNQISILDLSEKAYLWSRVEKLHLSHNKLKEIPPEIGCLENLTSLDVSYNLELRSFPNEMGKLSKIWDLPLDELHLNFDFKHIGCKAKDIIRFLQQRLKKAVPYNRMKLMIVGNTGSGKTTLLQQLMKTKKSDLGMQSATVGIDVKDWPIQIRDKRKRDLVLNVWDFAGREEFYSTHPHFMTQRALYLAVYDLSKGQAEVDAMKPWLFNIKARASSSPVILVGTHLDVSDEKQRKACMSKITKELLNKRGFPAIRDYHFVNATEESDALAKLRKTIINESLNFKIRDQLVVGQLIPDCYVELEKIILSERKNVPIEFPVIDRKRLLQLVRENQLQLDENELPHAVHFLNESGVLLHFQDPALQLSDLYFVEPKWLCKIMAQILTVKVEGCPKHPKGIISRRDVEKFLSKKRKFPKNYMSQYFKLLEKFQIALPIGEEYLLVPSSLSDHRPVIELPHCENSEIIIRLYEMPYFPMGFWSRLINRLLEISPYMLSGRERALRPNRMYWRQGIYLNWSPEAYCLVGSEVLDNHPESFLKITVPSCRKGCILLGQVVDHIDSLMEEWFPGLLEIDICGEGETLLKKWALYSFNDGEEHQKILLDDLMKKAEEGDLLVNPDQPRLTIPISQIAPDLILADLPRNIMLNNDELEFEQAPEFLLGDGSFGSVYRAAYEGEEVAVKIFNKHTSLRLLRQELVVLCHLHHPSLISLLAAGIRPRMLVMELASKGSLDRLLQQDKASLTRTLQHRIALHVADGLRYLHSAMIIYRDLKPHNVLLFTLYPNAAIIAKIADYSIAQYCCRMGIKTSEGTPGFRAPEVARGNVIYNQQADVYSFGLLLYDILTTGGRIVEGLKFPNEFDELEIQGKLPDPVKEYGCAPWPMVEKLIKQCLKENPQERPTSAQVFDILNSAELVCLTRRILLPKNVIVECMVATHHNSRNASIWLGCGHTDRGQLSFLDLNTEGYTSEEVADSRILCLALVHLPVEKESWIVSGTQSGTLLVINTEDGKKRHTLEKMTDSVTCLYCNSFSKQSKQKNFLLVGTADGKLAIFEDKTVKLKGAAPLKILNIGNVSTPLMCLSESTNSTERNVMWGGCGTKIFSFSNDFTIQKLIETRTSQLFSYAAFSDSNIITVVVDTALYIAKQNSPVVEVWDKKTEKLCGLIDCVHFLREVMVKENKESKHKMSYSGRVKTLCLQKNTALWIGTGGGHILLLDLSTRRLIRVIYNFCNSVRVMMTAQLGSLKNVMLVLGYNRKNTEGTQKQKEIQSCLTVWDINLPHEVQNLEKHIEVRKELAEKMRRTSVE

SMILES	pIC50 ([1]; class symbols)	pIC50 [1]	Human liver microsomes CLhep [2]
CCNc1nc(Nc2cn(C3C[C@H]3C#N)nc2C2CC2)ncc1Br (single isomer, unassigned) [Compound 215]	> 7.52		
[2H]C([2H])([2H])n1nc(C(C)(C)n2nccn2)cc1Nc1ncc(C(F)(F)F)c(NCC)n1 [Compound 34, N4-ethyl-N2-[1-(^2H3)methyl-3-[2-(2H-1,2,3-triazol-2-yl)propan-2-yl]-1H-pyrazol-5-yl]-5-(trifluoromethyl)pyrimidine-2,4-diamine]			0.75 mL/min/kg
CCNc1nc(Nc2cn(C3(C)CCOC3=O)nc2Cl)ncc1C(F)(F)F (centres unmarked) [Compound 117]	> 7.52		
CCNc1nc(Nc2cn(C3C[C@@H]3C#N)nc2Cl)ncc1C(F)(F)F (single isomer, unassigned) [Compound 206]	> 7.52		
CCNc1nc(Nc2cc(C3(C)CCOC3=O)nn2C2CC2)ncc1Br (centres unmarked) [Compound 150]		8.91	11.077 mL/min/kg
COc1nc(Nc2cn(C3(C)CCNC3=O)nc2C)ncc1Br (centres unmarked) [Compound 64A]	> 7.52		
CCNc1nc(Nc2cn(C3(C)CCOC3=O)nc2C)ncc1C(F)(F)F (centres unmarked) [Compound 100]	> 7.52		
CCNc1nc(Nc2cn(C3C[C@H]3C#N)nc2Cl)ncc1C(F)(F)F (single isomer, unassigned) [Compound 207]	> 7.52		
CNc1nc(Nc2cn(C3(C)CCOC3=O)nc2C)ncc1C(F)(F)F (centres unmarked) [Compound 119]	> 7.52		
Cc1nn(C2(C)CCOC2=O)cc1Nc1ncc(C(F)(F)F)c(C2CC2)n1 (centres unmarked) [Compound 103]	> 7.52		
CNc1nc(Nc2cn(C(C)(C)c3ncn(C)n3)nc2C)ncc1C(F)(F)F [Compound 218]			0 mL/min/kg
CNc1nc(Nc2cnn(C3CCCC3(C)O)c2C)ncc1C(F)(F)F (centres unmarked) [Compound 30]	7.22 to 7.52		
CCNc1nc(Nc2cn(C3(C)CCOC3=O)nc2C2CC2)ncc1C(F)(F)F (centres unmarked) [Compound 104]		9.02	11.59 mL/min/kg
CNc1nc(Nc2cnn(C3CN(C4COC4)CCC3(F)F)c2Cl)ncc1C(F)(F)F (centres unmarked) [Compound 28]	> 7.52		
CCNc1nc(Nc2cnn(C3CNCCC3(F)F)c2C)ncc1C(F)(F)F (centres unmarked) [Compound 200]	> 7.52		
CCNc1nc(Nc2cn(C3C[C@@H]3C#N)nc2C2CC2)ncc1Br (single isomer, unassigned) [Compound 214]	> 7.52		
CNc1nc(Nc2cc(C3(C)CCOC3=O)nn2C2CC2)ncc1C(F)(F)F (centres unmarked) [Compound 155]		8.71	5.519 mL/min/kg
N#C[C@@H]1CC1n1cc(Nc2ncc(C(F)(F)F)c(NCC(F)F)n2)c(C2CC2)n1 (single isomer, unassigned) [Compound 210]	> 7.52		

Continued, values first:

pIC50 ([1]; class symbols)	pIC50 [1]	Human liver microsomes CLhep [2]	SMILES
> 7.52			CNc1nc(Nc2cn(C3C[C@H]3C#N)nc2C2CC2)ncc1C(F)(F)F (single isomer, unassigned) [Compound 209]
> 7.52	8.98	16.508 mL/min/kg	CCNc1nc(Nc2cn(C3(C)CCOC3=O)nc2C2CC2)ncc1Br (centres unmarked) [Compound 114]
> 7.52			CNc1nc(Nc2cn(C3C[C@@H]3C#N)nc2C2CC2)ncc1C(F)(F)F (single isomer, unassigned) [Compound 208]
> 7.52			CCN1CCC(F)(F)C(n2ncc(Nc3ncc(C(F)(F)F)c(NC)n3)c2Cl)C1 (centres unmarked) [Compound 202]
> 7.52			CCNc1nc(Nc2cnn(C3CCCN(CC(F)F)C3)c2C)ncc1C(F)(F)F (centres unmarked) [Compound 116]
> 7.52			CCNc1nc(Nc2cnn3c2CC(n2nccn2)C3)ncc1C(F)(F)F (centres unmarked) [Compound 54A]
> 7.52			CNc1nc(Nc2cn(C3(C)CCOC3=O)nc2Cl)ncc1C(F)(F)F (centres unmarked) [Compound 99]
> 7.52	8.83	19.9 mL/min/kg	CCNc1nc(Nc2cc(C3(C)CCn4ncnc43)nn2C2CC2)ncc1C(F)(F)F (centres unmarked) [Compound 172]
> 7.52			COc1nc(Nc2cn(C3(C)CCOC3=O)nc2C)ncc1Br (centres unmarked) [Compound 102]
> 7.52			CCNc1nc(Nc2cnn3c2CC(C#N)C3)ncc1C(F)(F)F (centres unmarked) [Compound 52A]
